According to US10836763B2, “5 to 7 membered heterocyclic amides as JAK inhibitors” (priority 2018, dated 2020):
Like-named read-outs stand apart in the source and are kept apart here.

Legend:
[1] = Pharmacokinetics in plasma and lung in mouse; type: in vivo; conditions: BALB/c mice, single oral aspiration, 0.2 mg/mL, 50 μL; for Kp / AUC(0-t): mouse, other: oral aspiration into the trachea, 10 µg/mouse; for Kp: lung / plasma, read-out: Lung Tissue:Plasma AUC ratio; for AUC(0-t): plasma, read-out: Plasma AUC(0-24)
Description: Assay 6: Pharmacokinetics in Plasma and Lung in Mouse
Plasma and lung concentrations of test compounds and ratios thereof were determined in the following manner. BALB/c mice from Charles River Laboratories were used in the assay. Test compounds were individually formulated in 20% propylene glycol in pH 4 citrate buffer at a concentration of 0.2 mg/mL and 50 μL of the dosing solution was introduced into the trachea of a mouse by oral aspiration. At various time points (typically 0.167, 2, 6, 24 hr) post dosing, blood samples were removed via cardiac puncture and intact lungs were excised from the mice.

[2] = system: GM-CSF stimulated STAT5 phosphorylation in CD14+ monocytes; assay: Cellular JAK potency assay: inhibition of GM-CSF-induced pSTAT5; type: cell-based; conditions: Homo sapiens, Monocyte, 0.25 h, read-out: pIC50, inhibition of GM-CSF-induced pSTAT5 (converted)
Description: Assay 15: Cellular JAK Potency Assay: Inhibition of GM-CSF-Induced pSTAT5
The potency of test compounds for inhibition of granulocyte-macrophage colony-stimulating factor (GM-CSF) stimulated STAT5 phosphorylation was measured in CD14-positive (CD14+) monocytes derived from human whole blood (Stanford Blood Center) using flow cytometry. Because GM-CSF signals through JAK, this assay provides a measure of JAK cellular potency.
Monocytes were identified using a fluorescein isothiocyanate (FITC) conjugated anti-CD14 antibody (Clone RM052, Beckman Coulter), and an Alexa Fluor 647 conjugated anti-pSTAT5 antibody (pY694, BD Biosciences) was used to detect STAT5 phosphorylation.
Human peripheral blood mononuclear cells (PBMC) were isolated from human whole blood of healthy donors using a ficoll gradient. […] Cells were washed twice with FACS buffer, and then re-suspended in 1:10 […] Alexa Fluor 647:FACS buffer (100 μL) for 30 min at RT in the dark, washed twice in FACS buffer, and analyzed using a MACSQuant flow cytometer (Miltenyi).
To determine the inhibitory potency of the test compound, the median fluorescent intensity (MFI) of pSTAT5 was measured in CD14+ monocytes. IC50 values were determined from analysis of the inhibition curves of MFI vs compound concentration. Data are expressed as pIC50 (negative decadic logarithm IC50) values.

[3] = system: IL-12 stimulated STAT4 phosphorylation in CD3+ T cells; assay: Cellular JAK potency assay: inhibition of IL-12-induced pSTAT4; type: cell-based; conditions: Homo sapiens, T-cell, 0.5 h, read-out: pIC50, inhibition of IL-12-induced pSTAT4 (converted)
Description: Assay 16: Cellular JAK Potency Assay: Inhibition of IL-12-Induced pSTAT4
The potency of test compounds for inhibition of interleukin-12 (IL-12) stimulated STAT4 phosphorylation was measured in CD3-positive (CD3+) T cells derived from human whole blood (Stanford Blood Center) using flow cytometry. Because IL-12 signals through JAK, this assay provides a measure of JAK cellular potency.
CD3+ T cells were identified using a phycoerythrin (PE) conjugated anti-CD3 antibody (clone UCHT1, BD Biosciences), and an Alexa Fluor 647 conjugated anti-pSTAT4 antibody (clone 38/p-Stat4, BD Biosciences) was used to detect STAT4 phosphorylation.
Human peripheral blood mononuclear cells (PBMC) were isolated from human whole blood of healthy donors using a ficoll gradient. […] After incubation, cells were washed twice in FACS buffer before being analyzed using a MACSQuant flow cytometer (Miltenyi). To determine the inhibitory potency of the test compound, the median fluorescent intensity (MFI) of pSTAT4 was measured in CD3+ T cells. IC50 values were determined from analysis of the inhibition curves of MFI vs compound concentration. Data are expressed as pIC50 (negative decadic logarithm IC50) values.

Row | SMILES | Lung Tissue AUC(0-24) [1] | Kp [1] | AUC(0-t) [1] | IC50 ([2]; CD14+ monocytes, GM-CSF 0.3 ng/mL, 15 min, flow cytometry) | IC50 ([3]; CD3+ T cells, IL-12 10 ng/mL, 30 min, flow cytometry) | IC50 [2] | IC50 [3]
1 | CCCN1Cc2[nH]c(-c3n[nH]c4cc(-c5ccc(O)cc5CC)ccc34)nc2C[C@H]1C(=O)N1CCN(CCO)CC1 [Compound 1, (S)-(2-(6-(2-ethyl-4-hydroxyphenyl)-1H-indazol-3-yl)-5-propyl-4,5,6,7-tetrahydro-3H-imidazo[4,5-c]pyridin-6-yl)(4-(2-hydroxyethyl)piperazin-1-yl)methanone] | 64.6 µg·h/g | 111 | 581 ng·h/mL | 200 nM | 631 nM | – | –
2 | CCc1cc(O)ccc1-c1ccc2c(-c3nc4c([nH]3)CN(C)[C@H](C(=O)N3CCN(CCO)C[C@H]3C)C4)n[nH]c2c1 [Compound 5, ((S)-2-(6-(2-ethyl-4-hydroxyphenyl)-1H-indazol-3-yl)-5-methyl-4,5,6,7-tetrahydro-3H-imidazo[4,5-c]pyridin-6-yl)((R)-4-(2-hydroxyethyl)-2-methylpiperazin-1-yl)methanone] | 29.9 µg·h/g | 49.9 | 599 ng·h/mL | – | – | – | –
3 | CCc1cc(O)ccc1-c1ccc2c(-c3nc4c([nH]3)CN(C(C)C)[C@H](C(=O)N3CCCN(C)CC3)C4)n[nH]c2c1 [Compound 4, (S)-(2-(6-(2-ethyl-4-hydroxyphenyl)-1H-indazol-3-yl)-5-isopropyl-4,5,6,7-tetrahydro-3H-imidazo[4,5-c]pyridin-6-yl)(4-methyl-1,4-diazepan-1-yl)methanone] | – | – | – | – | – | 200 nM | 1000 nM
